The values below come from patent US20110135603A1, “INHIBITORS OF PHOSPHATIDYLINOSITOL 3-KINASE” (VERTEX PHARMACEUTICALS INCORPORATED, priority 2008, published 2011).

A short description of data set [1]: Evaluation of Brain/Plasma Concentrations. Format: in vivo. The conditions noted are these: Sprague-Dawley rats; for concentration at 2 h: 10 mg/kg oral intragastric in 0.5% MC, two hours after administration; for Kp at 2 h: 10 mg/kg oral, two hours, average brain/plasma ratio based on data obtained for each animal. On the procedure:
Selected compounds of the invention were evaluated for their ability to cross the blood-brain barrier. Accordingly, a compound of the invention was administered to Sprague-Dawley rats [10 mg/kg as a 1 mg/mL 0.5% MC solution] via oral intragastric delivery. Two hours after compound administration, the rats were anaesthetized by intramuscular administration of a 2 mL/kg Ketamine/Rompun/Acepromazine cocktail and placed onto necropsy table. The abdominal cavity was then opened with a V-cut and 300 microliters of blood was drawn directly from left ventricle for plasma concentration analysis. The blood sample was stored on ice in a 1.5 mL Eppendorf tube (containing K2EDTA) and subsequently centrifuged for 2 minutes at 2000 rpm. After centrifugation, 110 microliters of plasma was transferred to a fresh tube and stored at −70° C. until analysis. The rat was perfused with cold saline (containing 50 IU of heparin) at 20 mL/min from an infusion pump through the left ventricle of the heart. Immediately after starting the perfusion, a small cut in the right atria was made so that heparinized saline would flow through the body. The perfusion was continued until the liver appeared pale in color (about 60 mL of cold saline). The brain was removed and placed on ice, blotted dry, weighed, placed in a tube, frozen with liquid nitrogen, and stored at −70° C. until further analysis was performed.
In order to determine compound concentration in the plasma, the blood sample was prepared by protein precipitation with addition of acetonitrile at a ratio of 1:4. After vortexing and centrifugation, the supernatant was analyzed by high performance liquid chromatography-tandem mass spectrometry in positive Atmospheric Pressure Chemical Ionization (APCI) ionization mode. The analysis was done using reverse-phase high performance liquid chromatography with a 5.0 μm Xterra C18 analytical column (2.1×50 mm). Mobile phase was consists of a mixture of 10 mM ammonium acetate and acetonitrile running in a 1.5 minutes linear gradient. Aliquots of the matrix were spiked with known concentrations of the compound of interest and an internal standard. Study samples were spiked with the internal standard alone. The calibration curve generally contains final concentrations in the control matrix of 1 to 5000 ng/mL. The calibration curve was analyzed and the instrument response (area counts for compound of interest/Area Counts for internal Standard) are used to generate a calibration curve. The instrument response for study samples were compared to the calibration curve and the concentration back-calculated from the curve.
In order to determine compound concentration in the brain, the brain sample was thawed to RT, and a 0.5 weight equivalent of water was added to the sample. The sample was then completely homogenized. Two to four volumes of acetonitrile were added to the brain homogenate, the homogenate mixed and the sample centrifuged to remove protein. Similar to the method used to obtain blood concentrations, an aliquot of the sample homogenate supernatant was injected onto an LC/MS/MS running a gradient suitable for detecting the compound of interest. The instrument response was compared to the instrument response from calibration samples of brain homogenate spiked with known concentrations of compound in order to determine the brain concentration.

The next data set deals with PI3Kα (Homo sapiens, UniProt P42336). As to the kind of experiment: PI3K Inhibition Assay (33P-ATP, PI(4,5)P2 substrate), PI3Kα isoform. Format: biochemical. The conditions noted are these: 2 nM final enzyme, 3 μM ATP, 30 μM PI(4,5)P2; competitive tight binding Ki fit. On the procedure:
(§1) Using a Biomek FX from Beckman Coulter, 1.5 μL of each of ten 2.5-fold serial dilutions of a compound of the invention in 100% DMSO was added to an individual well (hereafter, “test well”) in a 96 well polystyrene plate [Corning, Costar Item No. 3697]. One test well also contained 1.5 μL of DMSO with no compound. […] Using a Titertek Multidrop, 50 μL of Reaction Mix [100 mM HEPES pH 7.5, 50 mM NaCl, 10 mM DTT, 0.2 mg/mL BSA, 60 μM phosphatidylinositol(4,5)bisphosphate diCl6 (PI(4,5)P2; Avanti Polar Lipids, Cat. No. 840046P) and PI3K isoform of interest (see Table 3 for isoform concentrations)] was added to each well. To initiate the reaction, 50 μL of ATP Mix [20 mM MgCl2, 6 μM ATP (100 μCi/μmole ^33P-ATP)] was added each well, followed by incubating the wells for 30 min. at 25° C. Final concentrations in each well were 50 mM HEPES 7.5, 10 mM MgCl2, 25 mM NaCl, 5 mM DTT, 0.1 mg/mL BSA, 30 μM PI(4,5)P2, 3 μM ATP, and the PI3K isoform of interest (see Table 3). Final compound concentrations in each well ranged from 10 μM to 1 nM.
(§2) After incubation, the reactions in each well were quenched by addition of 50 μL of stop solution [30% TCA/Water, 10 mM ATP]. Each quenched reaction mixture was then transferred to a 96 well glass fiber filter plate [Corning, Costar Item No. 3511]. The plate was vacuum-filtered and washed three times with 150 μL of 5% TCA/water in a modified Bio-Tek Instruments ELX-405 Auto Plate Washer. 50 μL of scintillation fluid was added to each well and the plate read on a Perkin-Elmer TopCount™ NXT liquid scintillation counter to obtain ^33P-counts representing inhibition values.
(§3) The value for the background well was subtracted from the value obtained for each test well and the data were fit to the competitive tight binding Ki equation described by Morrison and Stone, Comments Mol. Cell. Biophys. 2: 347-368, 1985.

The target of a further data set is PI3Kγ (Homo sapiens, UniProt P48736). Briefly: PI3K Inhibition Assay (33P-ATP, PI(4,5)P2 substrate), PI3Kγ isoform. Format: biochemical. The conditions noted are these: 2 nM final enzyme, 3 μM ATP, 30 μM PI(4,5)P2; competitive tight binding Ki fit. On the procedure: as §1, §2, §3
The subject of data set [2] is experimental autoimmune encephalomyelitis (EAE). As to the kind of experiment: Experimental autoimmune encephalomyelitis (EAE) mouse model of multiple sclerosis. The class given is in vivo. The conditions noted are these: prophylactic administration, contrasted with animals administered vehicle alone. An excerpt:
See, for example, Keszthelyi et al., Neurology, 1996, 47:1053-1059.

Setting [3] is: based on a density of rat plasma of 1.0 g/mL, read-out: Plasma Conc.
The mark [4] stands for this setting: rat, brain, average of two or three animals, read-out: Brain Conc.

Where two headings read alike, the source gives them in different places.

PI3Kγ, sequence (P48736 whole entry, species assumed, canonical isoform): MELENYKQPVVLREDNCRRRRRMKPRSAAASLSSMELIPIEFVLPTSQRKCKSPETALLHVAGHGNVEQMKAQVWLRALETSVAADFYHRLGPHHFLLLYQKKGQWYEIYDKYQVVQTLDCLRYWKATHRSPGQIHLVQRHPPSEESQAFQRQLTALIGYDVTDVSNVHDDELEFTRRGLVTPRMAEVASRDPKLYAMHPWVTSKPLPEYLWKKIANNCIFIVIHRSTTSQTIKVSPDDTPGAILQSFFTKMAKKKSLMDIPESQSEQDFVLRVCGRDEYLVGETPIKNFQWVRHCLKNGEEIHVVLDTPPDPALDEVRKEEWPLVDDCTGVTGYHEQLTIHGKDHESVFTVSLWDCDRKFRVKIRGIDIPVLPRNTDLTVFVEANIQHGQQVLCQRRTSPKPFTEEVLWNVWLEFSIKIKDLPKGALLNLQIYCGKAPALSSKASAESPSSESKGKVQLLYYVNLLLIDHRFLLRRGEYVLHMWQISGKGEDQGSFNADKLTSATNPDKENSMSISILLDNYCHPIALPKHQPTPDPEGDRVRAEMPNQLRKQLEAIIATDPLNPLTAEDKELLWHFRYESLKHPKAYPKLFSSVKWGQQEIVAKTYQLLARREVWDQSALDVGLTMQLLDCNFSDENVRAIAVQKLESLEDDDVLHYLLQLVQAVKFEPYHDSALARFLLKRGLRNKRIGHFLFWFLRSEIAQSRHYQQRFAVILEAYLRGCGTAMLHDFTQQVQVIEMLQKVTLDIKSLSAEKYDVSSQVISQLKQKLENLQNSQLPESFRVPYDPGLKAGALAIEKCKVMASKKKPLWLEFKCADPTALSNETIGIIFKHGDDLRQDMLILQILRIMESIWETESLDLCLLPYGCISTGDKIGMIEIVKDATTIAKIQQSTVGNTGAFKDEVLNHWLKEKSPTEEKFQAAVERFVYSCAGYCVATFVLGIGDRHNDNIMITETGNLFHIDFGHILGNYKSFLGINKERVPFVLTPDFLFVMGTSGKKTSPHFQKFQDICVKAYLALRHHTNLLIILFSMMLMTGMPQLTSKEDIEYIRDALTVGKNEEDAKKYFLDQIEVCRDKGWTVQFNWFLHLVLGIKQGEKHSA
PI3Kα, sequence (P42336 whole entry, species assumed, canonical isoform): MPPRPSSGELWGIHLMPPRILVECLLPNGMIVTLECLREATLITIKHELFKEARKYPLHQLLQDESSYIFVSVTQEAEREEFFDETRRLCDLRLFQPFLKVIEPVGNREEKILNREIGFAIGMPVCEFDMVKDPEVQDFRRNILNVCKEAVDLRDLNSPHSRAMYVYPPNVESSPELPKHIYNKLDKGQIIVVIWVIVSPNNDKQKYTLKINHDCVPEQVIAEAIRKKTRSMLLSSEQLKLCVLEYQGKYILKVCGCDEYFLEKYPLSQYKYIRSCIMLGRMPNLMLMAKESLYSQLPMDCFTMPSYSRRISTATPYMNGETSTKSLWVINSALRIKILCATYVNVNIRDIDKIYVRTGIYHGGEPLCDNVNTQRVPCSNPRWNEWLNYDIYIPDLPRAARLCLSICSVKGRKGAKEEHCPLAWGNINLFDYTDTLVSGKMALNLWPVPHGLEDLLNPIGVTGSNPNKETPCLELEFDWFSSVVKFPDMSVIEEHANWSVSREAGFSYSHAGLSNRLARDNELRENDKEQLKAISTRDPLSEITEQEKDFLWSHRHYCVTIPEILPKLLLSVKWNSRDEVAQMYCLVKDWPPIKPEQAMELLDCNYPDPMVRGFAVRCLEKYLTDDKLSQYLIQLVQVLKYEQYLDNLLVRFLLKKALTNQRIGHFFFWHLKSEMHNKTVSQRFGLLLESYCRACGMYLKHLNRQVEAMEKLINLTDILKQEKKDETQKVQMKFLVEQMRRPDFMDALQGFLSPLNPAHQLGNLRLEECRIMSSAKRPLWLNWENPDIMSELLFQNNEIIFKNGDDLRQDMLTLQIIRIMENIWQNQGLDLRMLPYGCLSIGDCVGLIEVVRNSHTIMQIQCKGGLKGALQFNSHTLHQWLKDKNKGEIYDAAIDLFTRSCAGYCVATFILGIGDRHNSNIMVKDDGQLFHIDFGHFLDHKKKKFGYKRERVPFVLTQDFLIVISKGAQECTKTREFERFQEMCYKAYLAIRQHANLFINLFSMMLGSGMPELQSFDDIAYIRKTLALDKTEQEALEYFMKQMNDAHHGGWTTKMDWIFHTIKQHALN
PI3Kα, sequence (P27986 whole entry partner, species assumed, canonical isoform): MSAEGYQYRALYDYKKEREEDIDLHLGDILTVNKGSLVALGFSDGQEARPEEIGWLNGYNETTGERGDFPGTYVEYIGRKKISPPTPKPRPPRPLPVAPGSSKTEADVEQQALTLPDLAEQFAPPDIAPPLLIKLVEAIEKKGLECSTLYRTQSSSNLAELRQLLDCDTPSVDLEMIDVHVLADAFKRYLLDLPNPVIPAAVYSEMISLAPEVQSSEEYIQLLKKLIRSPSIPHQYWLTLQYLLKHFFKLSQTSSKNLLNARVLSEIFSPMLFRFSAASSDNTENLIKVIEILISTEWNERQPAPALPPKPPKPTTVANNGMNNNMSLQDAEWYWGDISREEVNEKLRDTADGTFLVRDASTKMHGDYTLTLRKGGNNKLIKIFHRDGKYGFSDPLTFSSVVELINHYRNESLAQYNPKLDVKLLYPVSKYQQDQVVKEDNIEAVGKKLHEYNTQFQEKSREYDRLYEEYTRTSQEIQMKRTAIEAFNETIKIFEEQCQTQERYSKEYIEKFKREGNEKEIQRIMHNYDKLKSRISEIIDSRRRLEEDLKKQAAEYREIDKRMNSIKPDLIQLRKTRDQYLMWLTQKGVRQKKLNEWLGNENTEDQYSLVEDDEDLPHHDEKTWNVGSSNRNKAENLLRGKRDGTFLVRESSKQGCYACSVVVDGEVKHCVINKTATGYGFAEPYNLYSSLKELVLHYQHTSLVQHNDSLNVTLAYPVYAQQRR

Regarding `CCCOCCNC(=O)Nc1nc2ccc(-c3cncc(C(F)(F)F)c3)nc2s1` [Compound 1, 1-(5-(5-(trifluoromethyl)pyridin-3-yl)thiazolo[5,4-b]pyridin-2-yl)-3-(2-propoxyethyl)urea], the concentration at 2 h in data set [1] (setting [3]) was determined as 197 ng/mL; in data set [1] (setting [4]), 157 ng/g. For the same compound, the Kp at 2 h in data set [1] (rat) was 0.8. Also, the Ki on PI3Kα was in the range of 100 to 4000 nM; on PI3Kγ, 10 to 100 nM.

Take `CC(C)OCCCNC(=O)Nc1nc2ccc(-c3cncc(C(F)(F)F)c3)cc2s1` [Compound 3, 1-(6-(5-(trifluoromethyl)pyridin-3-yl)benzo[d]thiazol-2-yl)-3-(3-isopropoxypropyl)urea]: the Ki at PI3Kα was 100 to 4000 nM; on PI3Kγ, 10 to 100 nM.

With `CCNC(=O)Nc1nc2ccc(-c3cncc(C(F)(F)F)c3)nc2s1` [Compound 13], the Ki on PI3Kα is 10 to 100 nM; at PI3Kγ, no more than 10 nM.

For `CCOCCCNC(=O)Nc1nc2ccc(-c3cncc(C(F)(F)F)c3)nc2s1` [Compound 11], the concentration at 2 h was found to be 210 ng/mL in data set [1] (setting [3]) and 55 ng/g in data set [1] (setting [4]). Moreover, the Kp at 2 h in data set [1] (rat) is 0.3. Besides, the values for the Ki at PI3Kα and on PI3Kγ were 100 to 4000 nM and no more than 10 nM, respectively.

With `CCCOCCCNC(=O)Nc1nc2ccc(-c3cncc(C(F)(F)F)c3)nc2s1` [Compound 2], the Ki on PI3Kα lay within 100 to 4000 nM; on PI3Kγ, 10 to 100 nM.

Turning to `COCCCNC(=O)Nc1nc2ccc(-c3cncc(C(F)(F)F)c3)nc2s1` [Compound 10], the figures for the concentration at 2 h in data set [1] (setting [3]) and in data set [1] (setting [4]) were 985 ng/mL and 662 ng/g, respectively. Further, the Kp at 2 h in data set [1] (rat) came out at 0.7. For the same compound, the Ki is 10 to 100 nM at PI3Kα and no more than 10 nM at PI3Kγ. The “Effect on disease in EAE” value in data set [2] is “disease suppression”.

As a reminder, the Kp is the ratio of the level in a tissue or fluid to that in plasma or blood. A word on the Ki: it is the equilibrium dissociation constant of an inhibitor or competing ligand from its target. Low readings indicate a stronger hold on the target, high ones a looser hold on the target.
